Results from patent US20260069530A1, “METHODS OF TREATING PRIMARY LIVER TUMORS WITH NATURAL KILLER CELLS EXPRESSING A CYTOTOXIC RECEPTOR COMPLEX” (NKARTA, INC., priority 2018, published 2026).
pEC50: −log10 of the molar value.

Columns and labels:
NKG2D ligands = assay: total NKG2D ligand expression on HCC cell lines, flow cytometry with NKG2D-Fc; type: cell-based, human
From the text: (§1) FIGS. 17A-17N relate to expression of total NKG2D ligands and PD-L1 in relation to sorafenib concentration. FIGS. 17A-17F depict flow cytometry data related to changes in total NKG2D ligand expression in the indicated tumor cell lines in response to various concentrations of sorafenib (total expression is based on the use of the NKG2D-Fc fusion, so detection is of any ligand NKG2D could bind). FIGS. 17G-17L depict flow cytometry data related to changes in PD-L1 expression in the indicated tumor cell lines in response to various concentrations of sorafenib. FIGS. 17M and 17N are line graphs that summarize the flow cytometry data.
(§2) FIGS. 18A-18T relate to expression of total NKG2D ligands and PD-L1 in relation to Interferon gamma (IFNg) concentration. FIGS. 18A-18I depict flow cytometry data related to changes in total NKG2D ligand expression in the indicated tumor cell lines in response to various concentrations of IFNg (total expression is based on the use of the NKG2D-Fc fusion, so detection is of any ligand NKG2D could bind). […]
(§3) To investigate a possible mechanism of action regarding the sensitivity of hepatocellular carcinoma cells to sorafenib, the expression of the total population of NKG2D ligands on each cell line was measured in response to various doses of sorafenib. The total population of NKG2D ligands was detected through the use of the NKG2D-Fc chimeric antibody. […]

PD-L1 = PD-L1 expression on HCC cell lines, flow cytometry; type: cell-based, human
From the text: as §1, §2, §3

Huh-7 = assay: sorafenib dose-response against HCC cell lines; details: read-out: EC50 (concentration to achieve 50% cytotoxicity); FIG. 7B
SNU-387 cells = assay: sorafenib dose-response against HCC cell lines; details: read-out: EC50 (concentration to achieve 50% cytotoxicity); FIG. 7B
HL60 cells = assay: HL60 leukemia cell growth in co-culture with NK cells, with or without HDAC inhibitor; type: cell-based; details: valproic acid added to culture with NK cells expressing the NKG2D CAR (FIG. 35B)
Protocol: As discussed above, additional agents can be co-administered with engineered NK cells disclosed herein. For example, in several embodiments, histone deacetylase inhibitors are administered with engineered NK cells targeting an NKG2D ligand (or other tumor marker, such as CD123 or CD19). The leukemia cell line was grown alone as a control, co-cultured with NK cells expressing GFP, or co-cultured with NK cells expressing an NKG2D CAR as disclosed herein. By way of non-limiting example, the NKG2D CAR used in this example was NKG2D-OX40-[…]-mbIL15. […] According to additional embodiments, other HDAC inhibitors are used, such as romidepsin (e.g. FR901228), entinostat (e.g., MS-275) phenylbutyrate, belinostat (PDX101), sodium valproate, suberoylanilide hydroxamic acid, or combinations thereof.

Protocol for HCC cells: NKX101 cells were generated by transduction with a bicistronic virus encoding NKG2D, an intracellular OX40 costimulatory domain, CD33 signaling domain, and membrane-bound IL-15, which supports prolonged cell survival and proliferation. […] Combination with a sub-EC50 concentration of the kinase inhibitor Sorafenib (used here as a non-limiting example of an additional anti-cancer agent), an approved agent for HCC, was tested for additive cytotoxic effect with at low E:T ratios of NKX101 NK cells in vitro at 48 hrs.

Q: For `CNC(=O)c1cc(Oc2ccc(NC(=O)Nc3ccc(Cl)c(C(F)(F)F)c3)cc2)ccn1` [sorafenib], which “change in total NKG2D ligand expression” value (NKG2D ligands; various doses of sorafenib (FIG. 17M)) is on record?
A: Its value is “does not appear to have a substantial impact on the NKG2D ligand expression”.

Q: And the “change in PD-L1 expression” value (PD-L1; 10 micromolar sorafenib (FIG. 17N))?
A: The value was “many of the cell lines show an increase in PD-L1 expression”.

Q: What about the “cytotoxic effect of combination” value (HCC cells) of the same compound?
A: The value was “additive effect”.

Q: And the pEC50 (Huh-7)?
A: Its pEC50 is 5.10.

Q: And the pEC50 (SNU-387 cells)?
A: The pEC50 was 4.53.

Q: `CCCC(CCC)C(=O)O` [valproic acid] was tested. Which HL60 cell growth (HL60 cells) did it give?
A: Its HL60 cell growth is “synergistically interacted with the NK cells expressing the NKG2D CAR dramatically suppress HL-60 cell growth”.

Q: What does the source list for “interferon gamma: inflammatory cytokine secreted by NK cells once activated”?
A: change in total NKG2D ligand expression (NKG2D ligands; various concentrations of interferon gamma, nine HCC lines (FIG. 18S)): there does not appear to be a clear impact of interferon gamma on the expression of the total pool of NKG2D ligands; change in PD-L1 expression (PD-L1; higher doses of interferon gamma (FIG. 18T)): several cell lines seem to show a trend towards increasing PD-L1 expression with the higher doses of interferon gamma
